14 compounds from patent publication US11345701B1, “KRAS mutant protein inhibitors” (Jacobio Pharmaceuticals Co., Ltd., priority 2021, dated 2022) can be followed below.

In one data set the target is HIS-KRAS(G12C) (Homo sapiens (Human), UniProt P01116, G12C). Description: SOS1 catalyzed nucleotide exchange assay (TR-FRET). The class given is biochemical. As to conditions: GDP-loaded HIS-KRAS(G12C), 1 hour pre-incubation, TR-FRET. The protocol: TR-FRET signals were then read on Tecan Spark multimode microplate reader. […] TR-FRET ratios for each individual wells were calculated by equation: TR-FRET ratio=(Signal F515/Signal F486)*10000. Then the data were analyzed using a 4-parameter logistic model to calculate IC50 values.
Background: In TR-FRET formats the signal depends on donor and acceptor labels being close together.

Data set [1] concerns NCI-H358 cells expressing KRAS G12C mutant protein. Description: Phospho-ERK1/2(THR202/TYR204) HTRF assay. The format is cell-based. The conditions noted are these: 2 hours incubation, read-out: p-ERK IC50. How it is done:
The NCI-H358 cells in culture medium were seeded in 96-well plates at a concentration of 40,000 cells/well and then put in a 37° C./5% CO2 cell incubator to incubate overnight. […] After 2 hours incubation in a 37° C./5% CO2 cell incubator, the assay medium in 96-well plates was removed, then 50 μL of 1× blocking reagent-supplemented lysis buffer (Cisbio) was added and the plates were incubated at 25° C. for 45 min with shaking. 10 μL of cell lysates from the 96-well plates were transferred to a 384-well plate (Greiner) containing 2.5 μL/well HTRF® pre-mixed antibodies (Cisbio 64AERPEH). Incubate 4 hours at 25° C. and then read HTRF signals on Tecan Spark multimode microplate reader. The data were analyzed using a 4-parameter logistic model to calculate IC50 values.

Data set [2] can be described thus: Dog pharmacokinetic study. The conditions noted are these: plasma, beagle dog; for clearance / Vd: 1 mg/kg, iv; for Vd: read-out: VSS; for AUC(0-t) / Cmax / bioavailability: 3 mg/kg, po; for AUC(0-t): read-out: AUC0-24h; for Cmax: read-out: Cmax; for bioavailability: read-out: Oral BA (F %). The class given is in vivo, beagle dog. How it is done: (§1) The purpose of this study was to evaluate the pharmacokinetic properties of compounds in beagle dog following single dose administration. The day before administration, dogs were fasted overnight and free access to water. Four beagle dogs were needed for each compound and the four dogs were divided into two groups, group A and group B (one male(♂) and one female (♀) in each group). Dogs in group A were treated with a single 1 mg/kg dose of compound (iv). Dogs in group B were treated with a single 3 mg/kg dose of compound (po). For dogs in group A, blood samples were collected at pre-dose, and at the time point of 0.083, 0.25, 0.5, 1, 2, 4, 6, 8 and 24 h post-dose. For dogs in group B, blood samples were collected at pre-dose, and at the time point of 0.25, 0.5, 1, 2, 4, 6, 8 and 24 h post-dose. Blood samples were placed on ice until centrifugation to obtain plasma samples. The plasma samples were stored at −80° C. until analysis. The concentration of compound in plasma samples was determined using a LC-MS/MS method.

Data set [3] in a line: Mouse pharmacokinetic study. The class given is in vivo, Balb/c mouse. The conditions noted are these: plasma, Balb/c mouse (female). The protocol:
The purpose of this study was to evaluate the pharmacokinetic properties of compounds in Balb/c mouse (♀) following single dose administration. The day before administration, mice were fasted overnight and free access to water. Six mice were needed for each compound and the six mice were divided into two groups (n=3/group), group A and group B. Mice in group A were treated with a single 3 mg/kg dose of compound (iv). Mice in group B were treated with a single 10 mg/kg dose of compound (po). For each mouse in group A, blood samples were collected at pre-dose, and at the time point of 0.083, 0.25, 0.5, 1, 2, 4, 6, 8 and 24 h post-dose. For each mouse in group B, blood samples were collected at pre-dose, and at the time point of 0.25, 0.5, 1, 2, 3, 4, 6, 8 and 24 h post-dose. Blood samples were placed on ice until centrifugation to obtain plasma samples. The plasma samples were stored at −80° C. until analysis. The concentration of compound in plasma samples was determined using a LC-MS/MS method.

The nature of data set [4]: Cynomolgus monkey pharmacokinetic study. The format is in vivo. The conditions noted are these: plasma, cynomolgus monkey; for clearance / Vd: 1 mg/kg, iv; for Vd: read-out: VSS; for AUC(0-t) / Cmax / bioavailability: 3 mg/kg, po; for AUC(0-t): read-out: AUC0-24h; for Cmax: read-out: Cmax; for bioavailability: read-out: Oral BA (F %). How it is done: as §1, with “cynomolgus monkey” for “beagle dog”, “monkeys” for “dogs”, “monkeys are” for “beagle dogs were”, “male (♂)” for “male(♂)”, “Monkeys” for “Dogs”

Where two headings read alike, the source gives them in different places.

Sequence of HIS-KRAS(G12C) (P01116 other isoform, or with tags, fused parts or gaps G12C): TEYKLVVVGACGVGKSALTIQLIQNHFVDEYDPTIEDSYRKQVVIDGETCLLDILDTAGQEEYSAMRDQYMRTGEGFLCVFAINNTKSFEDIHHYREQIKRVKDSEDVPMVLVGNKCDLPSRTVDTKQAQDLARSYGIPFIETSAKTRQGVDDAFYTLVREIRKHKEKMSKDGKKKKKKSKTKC

As to `C=CC(=O)N1CCN(c2nc(=O)n(-c3c(C)ccnc3C(C)C)c3nc(-c4c(N)c(F)c(F)c(F)c4F)c(F)cc23)CC1` (single isomer, unassigned) [Compound 3-1, 4-(4-acryloylpiperazin-1-yl)-7-(2-amino-3,4,5,6-tetrafluorophenyl)-6-fluoro-1-(2-isopropyl-4-methylpyridin-3-yl)pyrido[2,3-d]pyrimidin-2(1H)-one], the IC50 – broadly, the concentration that gives 50% inhibition – against HIS-KRAS(G12C) was 3.14 nM; in data set [1] (Homo sapiens, NCI-H358, 2 h), 25.4 nM.

In the case of `C=CC(=O)N1CCN(c2nc(=O)n(-c3c(C)ccnc3C(C)C)c3nc(-c4c(N)c(F)c(F)c(F)c4F)c(F)cc23)C[C@H]1C` (single isomer, unassigned) [Compound 4-2], the IC50 on HIS-KRAS(G12C) was 278 nM.

The compound `C=CC(=O)N1CCN(c2nc(=O)n(-c3c(C)ccnc3C(C)C)c3nc(-c4c(N)c(F)c(F)c(F)c4F)c(F)cc23)CC1` (single isomer, unassigned) [Compound 3-2, 4-(4-acryloylpiperazin-1-yl)-7-(2-amino-3,4,5,6-tetrafluorophenyl)-6-fluoro-1-(2-isopropyl-4-methylpyridin-3-yl)pyrido[2,3-d]pyrimidin-2(1H)-one] had an IC50 on HIS-KRAS(G12C) of 234 nM.

In the case of `C=CC(=O)N1[C@H](C)CN(c2nc(=O)n(-c3c(C)ccnc3C(C)C)c3nc(-c4c(F)c(F)c(F)c(N)c4Cl)c(F)cc23)C[C@@H]1C` (single isomer, unassigned) [Compound 7-1], the IC50 against HIS-KRAS(G12C) turned out to be 6.54 nM; in data set [1] (Homo sapiens, NCI-H358, 2 h), 36.7 nM.

Take `C=CC(=O)N1CCN(c2nc(=O)n(-c3c(C)ccnc3C(C)C)c3nc(-c4c(F)c(F)c(F)c(N)c4Cl)c(F)cc23)[C@@H](C)C1` (single isomer, unassigned) [Compound 1-1]: the IC50 against HIS-KRAS(G12C) was determined as 4.08 nM; in data set [1] (Homo sapiens, NCI-H358, 2 h) it was 16.6 nM.

`C=CC(=O)N1CCN(c2nc(=O)n(-c3c(C)ccnc3C(C)C)c3nc(-c4c(F)c(F)c(F)c(N)c4Cl)c(F)cc23)C[C@H]1C` [Compound 6, 4-((R)-4-acryloyl-3-methylpiperazin-1-yl)-7-(3-amino-2-chloro-4,5,6-trifluorophenyl)-6-fluoro-1-(2-isopropyl-4-methylpyridin-3-yl)pyrido[2,3-d]pyrimidin-2(1H)-one] displayed an IC50 against HIS-KRAS(G12C) of 40.1 nM.

In the case of `C=CC(=O)N1CCN(c2nc(=O)n(-c3c(C)ccnc3C(C)C)c3nc(-c4c(N)c(F)c(F)c(F)c4F)c(F)cc23)CC1` [Compound 3, 4-(4-acryloylpiperazin-1-yl)-7-(2-amino-3,4,5,6-tetrafluorophenyl)-6-fluoro-1-(2-isopropyl-4-methylpyridin-3-yl)pyrido[2,3-d]pyrimidin-2(1H)-one], the IC50 against HIS-KRAS(G12C) was 5.51 nM.

As to `C=CC(=O)N1[C@H](C)CN(c2nc(=O)n(-c3c(C)ccnc3C(C)C)c3nc(-c4c(N)c(F)c(F)c(F)c4F)c(F)cc23)C[C@@H]1C` (single isomer, unassigned) [Compound 5-2], the IC50 against HIS-KRAS(G12C) amounted to 96.1 nM; in data set [1] it was 774 nM.

`C=CC(=O)N1CCN(c2nc(=O)n(-c3c(C)ccnc3C(C)C)c3nc(-c4c(F)c(F)c(F)c(N)c4Cl)c(F)cc23)[C@@H](C)C1` [Compound 1, 4-((S)-4-acryloyl-2-methylpiperazin-1-yl)-7-(3-amino-2-chloro-4,5,6-trifluorophenyl)-6-fluoro-1-(2-isopropyl-4-methylpyridin-3-yl)pyrido[2,3-d]pyrimidin-2(1H)-one]: the IC50 worked out at 7.25 nM against HIS-KRAS(G12C) and 70.1 nM in data set [1] (Homo sapiens, NCI-H358, 2 h).

Consider `C=CC(=O)N1[C@H](C)CN(c2nc(=O)n(-c3c(C)ccnc3C(C)C)c3nc(-c4c(F)c(F)c(F)c(N)c4Cl)c(F)cc23)C[C@@H]1C` (single isomer, unassigned) [Compound 7-2], for which the IC50 against HIS-KRAS(G12C) stood at 307 nM.

`C=CC(=O)N1CCN(c2nc(=O)n(-c3c(C)ccnc3C(C)C)c3nc(-c4c(O)cccc4F)c(F)cc23)[C@@H](C)C1` [Amg-510, reference compound]: the clearance (commonly the rate of elimination divided by the concentration) is 20.1 mL/min/kg in data set [2] (female); 21.1 mL/min/kg in data set [2] (male); 40.5 mL/min/kg in data set [3] (3 mg/kg, iv); 84.3 mL/min/kg in data set [4] (female); 25.5 mL/min/kg in data set [4] (male). In addition, the Vd in data set [2] (female) was 0.543 L/kg; in data set [2] (male) it was 0.535 L/kg; in data set [3] (3 mg/kg, iv, read-out: Vss), 1.64 L/kg; in data set [4] (female), 2.01 L/kg; in data set [4] (male) it was 0.775 L/kg. Also, the AUC(0-t) was determined as 404 ng·h/mL in data set [2] (female); 1990 ng·h/mL in data set [2] (male); 1810 ng·h/mL in data set [3] (10 mg/kg, po, read-out: AUC0-24 h); 241 ng·h/mL in data set [4] (female); 214 ng·h/mL in data set [4] (male). In addition, the maximum concentration (Cmax) (as a rule, the highest concentration seen after dosing) amounted to 450 ng/mL in data set [2] (female); 1840 ng/mL in data set [2] (male); 1600 ng/mL in data set [3] (10 mg/kg, po, read-out: Cmax); 100 ng/mL in data set [4] (female); 133 ng/mL in data set [4] (male). For the same compound, the bioavailability in data set [2] (female) stood at 16.4%; in data set [2] (male), 84.4%; in data set [3] (10 mg/kg, po, read-out: Oral BA (F %)) it was 43.9%; in data set [4] (female), 41.3%; in data set [4] (male), 11%.

`C=CC(=O)N1[C@H](C)CN(c2nc(=O)n(-c3c(C)ccnc3C(C)C)c3nc(-c4c(F)c(F)c(F)c(N)c4Cl)c(F)cc23)C[C@@H]1C` [Compound 7, 4-((3S,5R)-4-acryloyl-3,5-dimethylpiperazin-1-yl)-7-(3-amino-2-chloro-4,5,6-trifluorophenyl)-6-fluoro-1-(2-isopropyl-4-methylpyridin-3-yl)pyrido[2,3-d]pyrimidin-2(1H)-one] registered an IC50 on HIS-KRAS(G12C) of 17.5 nM.

On HIS-KRAS(G12C), `C=CC(=O)N1CCN(c2nc(=O)n(-c3c(C)ccnc3C(C)C)c3nc(-c4c(N)c(F)c(F)c(F)c4F)c(F)cc23)C[C@H]1C` [Compound 4, 4-((R)-4-acryloyl-3-methylpiperazin-1-yl)-7-(2-amino-3,4,5,6-tetrafluorophenyl)-6-fluoro-1-(2-isopropyl-4-methylpyridin-3-yl)pyrido[2,3-d]pyrimidin-2(1H)-one] returned an IC50 of 10.3 nM.

`C=CC(=O)N1CCN(c2nc(=O)n(-c3c(C)ccnc3C(C)C)c3nc(-c4c(F)c(F)c(F)c(N)c4Cl)c(F)cc23)[C@@H](C)C1` (single isomer, unassigned) [Compound 1-2]: inhibition at HIS-KRAS(G12C) was half-maximal at 121 nM (IC50).
